B1: FL-LPL: HA-TAT fused full-length L-plastin protein (70-75 kDa), purified from bacterial expression vector pTAT-HA (protein, UniProt P13796 1-627, looked up)
chain: MARGSVSDEEMMELREAFAKVDTDGNGYISFNELNDLFKAACLPLPGYRVREITENLMATGDLDQDGRISFDEFIKIFHGLKSTDVAKTFRKAINKKEGICAIGGTSEQSSVGTQHSYSEEEKYAFVNWINKALENDPDCRHVIPMNPNTNDLFNAVGDGIVLCKMINLSVPDTIDERTINKKKLTPFTIQENLNLALNSASAIGCHVVNIGAEDLKEGKPYLVLGLLWQVIKIGLFADIELSRNEALIALLREGESLEDLMKLSPEELLLRWANYHLENAGCNKIGNFSTDIKDSKAYYHLLEQVAPKGDEEGVPAVVIDMSGLREKDDIQRAECMLQQAERLGCRQFVTATDVVRGNPKLNLAFIANLFNRYPALHKPENQDIDWGALEGETREERTFRNWMNSLGVNPRVNHLYSDLSDALVIFQLYEKIKVPVDWNRVNKPPYPKLGGNMKKLENCNYAVELGKNQAKFSLVGIGGQDLNEGNRTLTLALIWQLMRRYTLNILEEIGGGQKVNDDIIVNWVNETLREAKKSSSISSFKDPKISTSLPVLDLIDAIQPGSINYDLLKTENLNDDEKLNNAKYAISMARKIGARVYALPEDLVEVNPKMVMTVFACLMGKGMKRV
modifications: full-length HA-TAT tag
notes: HA-TAT fused full-length L-plastin protein (70-75 kDa), purified from bacterial expression vector pTAT-HA
B2: mutated FL-LPL: TAT-fused full-length L-plastin with Ser-5 and Ser-7 mutated to Ala-5 and Ala-7 (protein, UniProt P13796 1-627, looked up, variant S5A S7A)
chain: MARGAVADEEMMELREAFAKVDTDGNGYISFNELNDLFKAACLPLPGYRVREITENLMATGDLDQDGRISFDEFIKIFHGLKSTDVAKTFRKAINKKEGICAIGGTSEQSSVGTQHSYSEEEKYAFVNWINKALENDPDCRHVIPMNPNTNDLFNAVGDGIVLCKMINLSVPDTIDERTINKKKLTPFTIQENLNLALNSASAIGCHVVNIGAEDLKEGKPYLVLGLLWQVIKIGLFADIELSRNEALIALLREGESLEDLMKLSPEELLLRWANYHLENAGCNKIGNFSTDIKDSKAYYHLLEQVAPKGDEEGVPAVVIDMSGLREKDDIQRAECMLQQAERLGCRQFVTATDVVRGNPKLNLAFIANLFNRYPALHKPENQDIDWGALEGETREERTFRNWMNSLGVNPRVNHLYSDLSDALVIFQLYEKIKVPVDWNRVNKPPYPKLGGNMKKLENCNYAVELGKNQAKFSLVGIGGQDLNEGNRTLTLALIWQLMRRYTLNILEEIGGGQKVNDDIIVNWVNETLREAKKSSSISSFKDPKISTSLPVLDLIDAIQPGSINYDLLKTENLNDDEKLNNAKYAISMARKIGARVYALPEDLVEVNPKMVMTVFACLMGKGMKRV
modifications: full-length HA-TAT tag

Legend:
Assay type in all cases: cell-based, mouse
osteoclasts [1] = assay: Osteoclast migration (transwell and phagokinesis assays)
Description: Transwell migration was done essentially as reported previously (Chellaiah et al., 2000, J. Cell Biol., 148: 665-678). Osteoclasts that migrated to the underside of the transwell membrane were stained with hematoxylin stain. Dried filters ware cut out and mounted with a permount solution (Thomas Scientific, Swedesboro, N.J.) on a glass slide. Cells were viewed under X40 objective in an inverted microscope. Six fields per transwell insert were counted using a Zeiss microscope as described previously (Chellaiah et al., 2000, J. Biol. Chem., 275: 11993-12002). Data are presented as the number of cells per migrated field (mean±SD) from one experiment.
Cell migration (phagokinesis and transwell migration) assays were done as described previously (Chellaiah et al., 2000, J. Cell Biol., 148: 665-678). Osteoclasts transduced with sNT-LPL peptides (P1, P2, P5, and P6) were used for these assays. Three to four transwells were used for each treatment. Migrated cells at the bottom of the wells were counted in 3-4 independent fields/transwell filter. Data are presented as migrated cells/field (mean±SD). The experiment was repeated with three osteoclast preparations. In phagokinesis assay, cell motility was assessed by measuring the areas free of gold particles. By using a grided reticule (Boyce Scientific. Inc.) in the eyepiece of a Nikon microscope, areas free of gold particles were measured using a 10× objective. Areas free of gold particles were represented as area moved in mm^2 (Chellaiah et al., 2000, J. Cell Biol., 148: 665-678),

osteoclasts [2] = assay: Podosome organization in osteoclasts (actin staining); settings: for formation of podosomes: sNT-LPL peptides; for actin modulation involved in podosome assembly/disassembly: TAT-fused LPL peptides
Procedure: (§1) Osteoclast precursors (10^5 cells/coverslips) were cultured on glass cover slips or dentine slices. Fluorescent labeling was done in osteoclasts transduced or untransduced with TAT-proteins. HA or TAT antibody was used to identify the transduced peptides of interest; rhodamine phalloidin was used to determine actin organization (Chellaiah et al., 2000, J. Cell Biol., 148: 665-678; Chellaiah et al., 2000, J. Biol. Chem., 275: 11993-12002). Immunostained and actin stained osteoclasts were photographed with a Bio-Rad confocal laser-scanning microscope. Images were stored in TIF image format and processed by Adobe Photoshop (Adobe Systems Inc., Mountain View. Calif.).
(§2) After cells were kept in the serum-free α-MEM medium for two hours, LPL peptides of interest were added to a final concentration of 100-150 nM to cells in serum-free media (Chellaiah et al, 2000, J. Biol. Chem., 275: 11993-12002). Osteoclasts transduced with peptides of interest and added with bone particles in the presence of TNF-α for 3-4 hours or 12-14 hours were used for lysate preparations. Cells plated on coverslips and treated with peptides were used for actin staining to detect podosomes. After transduction for 30 min., osteoclasts were re-plated on dentine slices with respective LPL peptide and TNF-α for 3-6 hours or 12-14 hours. These cells were used for Actin staining with rhodamine-phalloidin or immunostaining analyses (Chellaiah et al., 2000, J. Biol. Chem., 275: 11993-12002; Chellaiah et al., 2000, J. Cell. Biol., 148: 665-678; Chellaiah et al., 2003, J Biol Chem 278: 29086-29097).
Osteoclasts were fixed with 3% paraformaldehyde for 20 minutes and permeabilized with 0.1% Triton X-100 in PBS for 5 minutes. Subsequently, osteoclasts were stained with a primary (HA or integrin αv) and secondary antibody as described (Chellaiah et al., 2003, J Biol Chem 278: 29086-29097). Actin staining was done with rhodamine-phalloidin as described (Chellaiah et al., 2000, J. Biol. Chem., 275: 11993-12002; Chellaiah et al., 2000, J. Cell Biol., 148: 665-678). Cells were washed and mounted on a slide in a mounting solution (Vector Laboratories) and sealed with nail polish. Immunostained osteoclasts were photographed with a Bio-Rad and Nikon confocal microscope. Images were stored in TIF image format and processed by Adobe Photoshop (Adobe Systems Inc., Mountain View, Calif.).

osteoclasts [3] = assay: Sealing ring formation in osteoclasts plated on dentine; settings: for formation of mature sealing rings: sNT-LPL peptides, time course to 10 hours; for number of sealing rings: dentine 10-12 hours, TNF-α
Procedure: The vector pTAT-HA has an N-terminal 6-histidine leader (Nagahara et al., 1998, Nature Medicine, 4:1449-1452). […] For transduction with TAT-fused peptides (100-150 nM), osteoclasts were first kept in serum-free α-MEM for two hours. Afterward, TAT proteins of interest, bone particles, and TNF-α were added to cells in serum-free α-MEM Lysates were made from these cells for immunoprecipitation and immunoblotting analyses. Osteoclasts plated on dentine slices in the presence of TAT-proteins of interest and TNF-α for 3-6 hours or 12-14 hours were used for immunostaining or actin staining analyses. Osteoclast cultures treated only with TNF-α were used as controls.
as §1, §2
Osteoclasts were fixed with 3% paraformaldehyde for 20 minutes and permeabilized with 0.1% Triton X-100 in PBS for 5 minutes. Subsequently, osteoclasts were stained with a primary (HA or integrin αv) and secondary antibody as described (Chellaiah et al., 2003, J Biol Chem 278: 29086-29097). Actin staining was done with rhodamine-phalloidin as described (Chellaiah et al., 2000, J. Biol. Chem., 275: 11993-12002; Chellaiah et al., 2000, J. Cell Biol., 148: 665-678). […]

[4] = phagokinesis and transwell migration assays, sNT-LPL peptides
[5] = transwell migration, TAT-fused LPL peptides

| Molecule | migration (osteoclasts [1]; [4]) | formation of podosomes (osteoclasts [2]) | formation of mature sealing rings (osteoclasts [3]) | migration (osteoclasts [1]; [5]) | actin modulation involved in podosome assembly/disassembly (osteoclasts [2]) | number of sealing rings (osteoclasts [3]) | number of sealing rings (osteoclasts [3]; listed as PL-LPL) |
| --- | --- | --- | --- | --- | --- | --- | --- |
| MARGAVADEE [Peptide P2, TAT-fused sNT-LPL peptide, Ser-5 and Ser-7 substituted to Alanine (A5A7)] | Neither the migration (FIG. 12A-FIG. 12C) nor the formation the podosomes (FIG. 12D) was affected | Neither the migration (FIG. 12A-FIG. 12C) nor the formation the podosomes (FIG. 12D) was affected | – | – | – | – | – |
| MARGSVSDEE [Peptide P1, TAT-fused small molecular weight (10aa) amino-terminal LPL peptide, unsubstituted (S5S7)] | Neither the migration (FIG. 12A-FIG. 12C) nor the formation the podosomes (FIG. 12D) was affected | Neither the migration (FIG. 12A-FIG. 12C) nor the formation the podosomes (FIG. 12D) was affected | abrogated | – | – | – | – |
| SRSGMVEEAD [Peptide P5, TAT-fused scrambled sNT-LPL peptide, control, reference compound] | Neither the migration (FIG. 12A-FIG. 12C) nor the formation the podosomes (FIG. 12D) was affected | Neither the migration (FIG. 12A-FIG. 12C) nor the formation the podosomes (FIG. 12D) was affected | time-dependent organization | – | – | – | – |
| B1 | – | – | – | does not affect | does not affect | Multiple sealing rings | increased |
| B2 | – | – | – | does not affect | does not affect | – | – |
